For orientation: EC50 means the concentration at which the effect is half-maximal.

Read-outs that look alike come from different tables or passages of the source.

Assay [1] relates to Trypanosoma brucei Lister 427 strain bloodstream form. The assay is described as follows: Assay for proliferation of kinetoplastid parasite Trypanosoma brucei. The assay is classed as cell-based. The conditions noted are these: read-out: T. brucei EC50. Summed up: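 Bloodstream-form T. brucei Lister 427 in HMI-9 medium was exposed to compound (DMSO vehicle) for 48 hours at 37° C, 5% CO2. Parasite growth was read as ATP by CellTiter-Glo luminescence, with EC50 calculated from percent inhibition.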

The subject of assay [2] is Trypanosoma cruzi amastigotes (Tulahuen strain) cultured in 3T3 fibroblast cells. The assay is described as follows: Assay for proliferation of kinetoplastid parasite Trypanosoma cruzi. The assay is classed as cell-based. The following applies: 144 h, read-out: T cruzi EC50. An excerpt: Assay for Proliferation of Kinetoplastid Parasite Trypanosoma cruzi.
Compounds of the invention can be assayed to measure their capacity to inhibit proliferation of kinetoplastid parasite Trypanosoma cruzi. The screening procedure is for identifying compounds with inhibitor activity against Trypanosoma cruzi amastigotes cultured in 3T3 fibroblast cells. The assay is done using the mammalian stage (amastigotes) of T. cruzi that replicates in the intracellular space of host cells. The host cells are initially infected with the culture-derived trypomastigotes that rapidly invade and then divide as amastigotes. The protocol uses the Tulahuen strain of T. cruzi that has been engineered to express the E. coli beta-galactosidase gene (Lac-Z) (Antimicr. Agents Chemoth. 40:2592, 1996). This allows for a colorimetric readout by using the substrate CPRG and an absorbance plate reader.
3T3 fibroblast cells are re-suspended in RPMI-1640 medium without phenol red medium supplemented with 10% FBS (heat inactivated), 100 μg/ml penicillin, and 100 μg/ml streptomycin. Forty μL of suspension (1,000 cells) is dispensed into 384-well plates and incubated overnight at 37° C. temperature and in atmosphere containing 5% CO2. The following day, 100 nL of compounds of the invention in DMSO are added to plate wells containing 3T3 cells. At the same time control compounds (benznidazole and nifurtimox) and DMSO are added to plates to serve as the positive and negative controls, respectively. After that, 10 μL of media containing 10,000 T. cruzi trypomastigotes are added to each plate well and plates are placed back into incubators. After 6 day incubation, 10 μL of reagent solution (0.6 mM CPRG, 0.6% NP-40 in PBS) is added to plates and incubated at room temperature for 2 hours. Absorbance is then measured on SpectraMax Gemini […] to determine relative number of T. cruzi cells present in each plate well. The percentage inhibition of 50%, EC50, is calculated for each compound. […] Typically, the EC50 is 10 μM or less.

The test system of assay [3] is L. donovani HU3 strain in mouse peritoneal macrophages. The assay is described as follows: Assay for proliferation of Leishmania parasites in mouse peritoneal macrophages. It counts as cell-based, Leishmania donovani. The following applies: Leishmania donovani, Peritoneal macrophage, read-out: L. donavani Macrophage EC50. Summed up: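 EC50 derives from counting SYBR Green-stained parasite nuclei by high-content imaging after 5 days' compound exposure. Host cells were uninfected BALB/c peritoneal macrophages, infected for 24 h before dosing with spleen-derived L. donovani HU3 parasites from mice infected 9–11 weeks.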

Assay [4] concerns Leishmania donovani axenic amastigote parasites. The assay is described as follows: Leishmania donovani axenic amastigote proliferation assay. It counts as cell-based. The conditions noted are these: read-out: L. donovani amastigotes EC50. Summed up: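 EC50 values come from CellTiter-Glo luminescence after 2-day compound exposure of axenic amastigotes (9600 per well) at 37 °C, 5% CO2. Medium: RPMI 1640, 20% heat-inactivated FBS, folic acid, adenosine, D-glucose, 25 mM MES, adjusted to pH 5.5.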

The mark [5] stands for this setting: Lister 427 bloodstream form, 48 hours.
Where [6] appears, read: Tulahuen amastigotes in 3T3 fibroblast cells, 6 day incubation.

Consider `Cc1cnc2nc(-c3cc(NC(=O)NCCN(C)C)ccc3Cl)[nH]c2c1` [Example 226, 1-(4-Chloro-3-{6-methyl-1H-imidazo[4,5-b]pyridin-2-yl}phenyl)-3-[2-(dimethylamino)ethyl]urea], for which the EC50 is more than 22.2 µM in assay [1] (48 h); more than 20 µM in assay [2] (TULAHUEN, Fibroblast); more than 50 µM in assay [3]; more than 25 µM in assay [4].

As to `Cc1cnc2nc(-c3cc(NC(=O)OC4CCCCC4)ccc3Cl)[nH]c2c1` [Compound 222], the EC50 in assay [1] (setting [5]) was more than 25 µM; in assay [2] (setting [6]), 6.4 µM; in assay [3], more than 22.6 µM; in assay [4] (axenic amastigotes in vitro) it was more than 25 µM.

As for `Cc1cnc2nc(-c3cc(NC(=O)Cc4ccncc4)ccc3Cl)[nH]c2c1` [Compound 148], the EC50 is more than 24.6 µM in assay [1] (setting [5]), more than 20 µM in assay [2] (setting [6]), more than 50 µM in assay [3] and more than 25 µM in assay [4] (axenic amastigotes in vitro).

Take `Cc1cnc2nc(-c3cc(NC(=O)c4ccccc4N(C)C)ccc3Cl)[nH]c2c1` [Compound 150]: the EC50 was 12.1 µM in assay [1] (setting [5]), 8.9 µM in assay [2] (setting [6]), 22.8 µM in assay [3] and more than 25 µM in assay [4] (axenic amastigotes in vitro).

On to `Cc1cnc2nc(-c3cc(NC(=O)c4cccnn4)ccc3Cl)[nH]c2c1` [Compound 186], for which the 50% effective concentration (EC50) in assay [1] (setting [5]) was 4.5 µM; in assay [2] (setting [6]), more than 11.5 µM; in assay [3] it was more than 34.7 µM; in assay [4] (axenic amastigotes in vitro) it was more than 25 µM.

In the case of `COCCOC(=O)Nc1ccc(Cl)c(-c2nc3ncc(Br)cc3[nH]2)c1` [Compound 371], the EC50 in assay [1] (setting [5]) is 2.21 µM; in assay [2] (setting [6]) it was 3.3 µM; in assay [3] it was 6.5 µM; in assay [4] (axenic amastigotes in vitro), 2.35 µM.

In the case of `O=C(Nc1ccc(Cl)c(-c2nc3ncc(-c4ccc(OCc5ccccc5)cc4)cc3[nH]2)c1)c1ccco1` [Compound 47], the EC50 was 0.04 µM in assay [1] (setting [5]), 0.104 µM in assay [2] (setting [6]), more than 7.2 µM in assay [3] and 0.46 µM in assay [4] (axenic amastigotes in vitro).

Regarding `O=C1Cc2cc(-c3cnc4nc(-c5cc(NC(=O)C6CCCC6)ccc5Cl)[nH]c4c3)ccc2N1` [Compound 377], the EC50 was 0.58 µM in assay [1] (setting [5]), 2.06 µM in assay [2] (setting [6]), 5.8 µM in assay [3] and 6.6 µM in assay [4] (axenic amastigotes in vitro).

Regarding `Cc1cnc2nc(-c3cc(NC(=O)c4nccnc4O)ccc3Cl)[nH]c2c1` [Compound 174], the EC50 was more than 25 µM in assay [1] (setting [5]), more than 20 µM in assay [2] (setting [6]), more than 50 µM in assay [3] and more than 25 µM in assay [4] (axenic amastigotes in vitro).

In the case of `Cc1cnc2nc(-c3cc(NC(=O)c4cccc(N5CCCCC5)c4)ccc3Cl)[nH]c2c1` [Compound 99], the EC50 is 6.3 µM in assay [1] (setting [5]), 5.5 µM in assay [2] (setting [6]), more than 50 µM in assay [3] and more than 25 µM in assay [4] (axenic amastigotes in vitro).

`Cc1cnc2nc(-c3cc(NC(=O)N(C)C)ccc3Cl)[nH]c2c1` [Compound 243]: the EC50 in assay [1] (setting [5]) is 0.45 µM; in assay [2] (setting [6]), 2.58 µM; in assay [3] it was 39.6 µM; in assay [4] (axenic amastigotes in vitro) it was 5 µM.

With `Cc1cnc2nc(-c3cc(NC(=O)N4CCN(C)CC4)ccc3Cl)[nH]c2c1` [Compound 244], the EC50 is more than 25 µM in assay [1] (setting [5]), more than 20 µM in assay [2] (setting [6]), more than 50 µM in assay [3] and more than 25 µM in assay [4] (axenic amastigotes in vitro).

In the case of `Cc1cnc2nc(-c3cc(NC(=O)N4CC5CC5C4)ccc3Cl)[nH]c2c1` (centres unmarked) [Compound 230], the EC50 turned out to be 1.48 µM in assay [1] (setting [5]), 3.6 µM in assay [2] (setting [6]), 13.3 µM in assay [3] and 5.4 µM in assay [4] (axenic amastigotes in vitro).

`Cc1cnc2nc(-c3cc(NC(=O)c4ccc(N5CCOCC5)cn4)ccc3Cl)[nH]c2c1` [Compound 84]: the half-maximal effective concentration (EC50) in assay [1] (setting [5]) is 2.13 µM; in assay [2] (setting [6]), 2.3 µM; in assay [3], more than 50 µM; in assay [4] (axenic amastigotes in vitro), 6.7 µM.

(Values after patent US9233961B2, “Compounds and compositions for the treatment of parasitic diseases” (Novartis AG, priority 2013, dated 2016).)
